Values of other authors in patent publication US20260345483A1, “Pharmaceutical Formulation” (Klaria Pharma Holding AB, priority 2018, published 2026).

What was measured:
[1] = subcutaneous injection compared with intramuscular injection, ref [3]
[2] = aqueous solution, ref [4]
[3] = tested on: porcine buccal epithelium; conditions: enhancer concentration, ref [6]

Row | time of peak plasma concentration [1] | pH of acceptable adrenaline stability [2] | pH of optimal adrenaline stability [2] | enhanced permeability with porcine buccal epithelium [3] | SMILES
1 | significantly delayed | < 5.5 | 3-4 | – | CNCC(O)c1ccc(O)c(O)c1 (stereo not shown) [adrenaline]
2 | – | – | – | 1-10% | CCCCCCCC/C=C\CCCCCCCC(=O)O [Oleic acid, oleic acid]
